We go through 33 molecules from patent publication US12559495B2 (Agency for Science, Technology and Research, priority 2013, dated 2026).

The test system of the assay is HEK293-STF3A cells. Kind of assay: STF3A assay (luciferase reporter). Particulars: Homo sapiens, 24 h, 1 day of treatment. The class given is cell-based. As for the experimental part: HEK293-STF cell line was modified from Human embryonic kidney cell line HEK293 transfected with the STF reporter. HEK293-STF3A cell line was further modified from HEK293-STF cell line to express Wnt3A. This cell line was used to identify compounds that regulate either early or late signalling components of the Wnt pathway. L-Wnt3A (ATCC, #CRL-2647) cell line was used for providing Wnt3A conditioned media. The three cell lines were grown in DMEM (Dulbecco's Modified Eagle Medium) with 10% FBS (fetal bovine serum) incubated in 37° C. with 5% CO2. 2×10^4 HEK293-STF3A cells in 75 μl culture media were seeded in each well of white 96 well plates (Greiner #655098) and incubated overnight at 37° C. 25 μl serially diluted compound was added to the cells to give final concentration of 50 μM to 1.5 nM. After 1 day of treatment, 100 μl of Steady-Glo® Luciferase Assay reagent (#E2520, Promega) was added to each well and incubated for 10 minutes at room temperature. Luminescence was measured using Tecan Safire2® plate reader.
For the molecule `Cn1c(=O)c2c(ncn2CC(=O)Nc2ccc(-c3cncs3)cc2)n(C)c1=O` [Compound 1, 2-(1,3-dimethyl-2,6-dioxo-2,3-dihydro-1H-purin-7(6H)-yl)-N-(4-(thiazol-5-yl)phenyl)acetamide], the IC50 was < 0.1 µM.
In the case of `Cn1c(=O)c2c(ncn2CC(=O)Nc2ccc(-c3ccccc3)s2)n(C)c1=O` [Compound 2, 2-(1,3-dimethyl-2,6-dioxo-2,3-dihydro-1H-purin-7(6H)-yl)-N-(5-phenylthiophen-2-yl)acetamide], the IC50 is < 0.1 µM.
For `Cn1c(=O)c2c(ncn2CC(=O)Nc2cc(-c3ccccc3)cs2)n(C)c1=O` [Compound 3, 2-(1,3-dimethyl-2,6-dioxo-2,3-dihydro-1H-purin-7(6H)-yl)-N-(4-phenylthiophen-2-yl)acetamide], the IC50 was < 1 µM.
On to `Cn1c(=O)c2c(ncn2CC(=O)Nc2ccc(-n3ccnc3)cc2)n(C)c1=O` [Compound 4, N-(4-(1H-imidazol-1-yl)phenyl)-2-(1,3-dimethyl-2,6-dioxo-2,3-dihydro-1H-purin-7(6H)-yl)acetamide], for which the half-inhibitory concentration (IC50) was < 1 µM.
On to `Cn1c(=O)c2c(ncn2CC(=O)Nc2ccc(-c3cccnn3)cc2)n(C)c1=O` [Compound 6, 2-(1,3-dimethyl-2,6-dioxo-2,3-dihydro-1H-purin-7(6H)-yl)-N-(4-(pyridazin-3-yl)phenyl)acetamide], for which the IC50 is < 1 µM.
In the case of `Cn1c(=O)c2c(ncn2CC(=O)Nc2ccc(-c3ncccn3)cc2)n(C)c1=O` [Compound 8, 2-(1,3-dimethyl-2,6-dioxo-2,3-dihydro-1H-purin-7(6H)-yl)-N-(4-(pyrimidin-2-yl)phenyl)acetamide], the IC50 was < 5 µM.
The result for `Cn1c(=O)c2c(ncn2CC(=O)Nc2ccc(-c3ccccn3)cn2)n(C)c1=O` [Compound 9, N-(2,3′-bipyridin-6′-yl)-2-(1,3-dimethyl-2,6-dioxo-2,3-dihydro-1H-purin-7(6H)-yl)acetamide] reads < 0.1 µM; that for `Cn1c(=O)c2c(ncn2CC(=O)Nc2ccc(-c3ccncc3)cc2)n(C)c1=O` [Compound 10, 2-(1,3-dimethyl-2,6-dioxo-2,3-dihydro-1H-purin-7(6H)-yl)-N-(4-(pyridin-4-yl)phenyl)acetamide], < 1 µM; that for `Cn1c(=O)c2c(ncn2CC(=O)Nc2ccc(-c3ccc(F)cc3)nn2)n(C)c1=O` [Compound 11, 2-(1,3-dimethyl-2,6-dioxo-2,3-dihydro-1H-purin-7(6H)-yl)-N-(6-(4-fluorophenyl)pyridazin-3-yl)acetamide], < 0.1 µM.
The result for `Cn1c(=O)c2c(ncn2CC(=O)Nc2ccc(-c3ccncc3)nn2)n(C)c1=O` [Compound 12, 2-(1,3-dimethyl-2,6-dioxo-2,3-dihydro-1H-purin-7(6H)-yl)-N-(6-(pyridin-4-yl)pyridazin-3-yl)acetamide] reads < 5 µM; that for `Cc1cc(-c2ccccc2)ccc1NC(=O)Cn1cnc2c1c(=O)n(C)c(=O)n2C` [Compound 13, 2-(1,3-dimethyl-2,6-dioxo-2,3-dihydro-1H-purin-7(6H)-yl)-N-(3-methylbiphenyl-4-yl)acetamide], > 10 µM; that for `COc1cc(NC(=O)Cn2cnc3c2c(=O)n(C)c(=O)n3C)ccc1-c1ccccc1` [Compound 14, 2-(1,3-dimethyl-2,6-dioxo-2,3-dihydro-1H-purin-7(6H)-yl)-N-(2-methoxybiphenyl-4-yl)acetamide], < 1 µM.
As to `C[C@H]1CN(C(=O)OC(C)(C)C)CCN1c1ccc(NC(=O)Cn2cnc3c2c(=O)n(C)c(=O)n3C)cc1` [Compound 15, (S)-tert-butyl 4-(4-(2-(1,3-dimethyl-2,6-dioxo-2,3-dihydro-1H-purin-7(6H)-yl)acetamido)phenyl)-3-methylpiperazine-1-carboxylate], the IC50 was < 0.1 µM.
With `C[C@@H]1CN(C(=O)OC(C)(C)C)CCN1c1ccc(NC(=O)Cn2cnc3c2c(=O)n(C)c(=O)n3C)cc1` [Compound 16, (R)-tert-butyl 4-(4-(2-(1,3-dimethyl-2,6-dioxo-2,3-dihydro-1H-purin-7(6H)-yl)acetamido)phenyl)-3-methylpiperazine-1-carboxylate], the IC50 is < 1 µM.
Turning to `CN(C(=O)Cn1cnc2c1c(=O)n(C)c(=O)n2C)c1ccc(-c2ccsc2)cc1` [Compound 17, 2-(1,3-dimethyl-2,6-dioxo-2,3-dihydro-1H-purin-7(6H)-yl)-N-methyl-N-(4-(thiophen-3-yl)phenyl)acetamide], the IC50 was > 10 µM.
The result for `Cn1c(=O)c2c(ncn2CC(=O)Nc2ccc(-c3ccsc3)cc2)n(C)c1=O` [Compound 18, 2-(1,3-dimethyl-2,6-dioxo-2,3-dihydro-1H-purin-7(6H)-yl)-N-(4-(thiophen-3-yl)phenyl)acetamide] reads < 0.1 µM; that for `Cn1c(=O)c2c(ncn2CC(=O)Nc2ccc(-c3ccccc3)cn2)n(C)c1=O` [Compound 19, 2-(1,3-dimethyl-2,6-dioxo-2,3-dihydro-1H-purin-7(6H)-yl)-N-(5-phenylpyridin-2-yl)acetamide], < 0.1 µM; that for `Cn1c(=O)c2c(ncn2CC(=O)Nc2ccc(N3CCN(C(=O)OC(C)(C)C)CC3)cn2)n(C)c1=O` [Compound 20], < 0.1 µM.
For `Cn1c(=O)c2c(ncn2CC(=O)Nc2ccc(N3CCN(Cc4cccc(Cl)c4)CC3)cn2)n(C)c1=O` [Compound 21, N-(5-(4-(3-chlorobenzyl)piperazin-1-yl)pyridin-2-yl)-2-(1,3-dimethyl-2,6-dioxo-2,3-dihydro-1H-purin-7(6H)-yl)acetamide], the IC50 is < 0.1 µM.
Regarding `Cn1c(=O)c2c(ncn2CC(=O)Nc2ccc(N3CCN(C(=O)OC(C)(C)C)CC3)cc2)n(C)c1=O` [Compound 22, tert-butyl 4-(4-(2-(1,3-dimethyl-2,6-dioxo-2,3-dihydro-1H-purin-7(6H)-yl)acetamido)phenyl)piperazine-1-carboxylate], the IC50 was < 0.1 µM.
For the molecule `CC(C(=O)Nc1ccc(N2CCN(C(=O)OC(C)(C)C)CC2)cc1)n1cnc2c1c(=O)n(C)c(=O)n2C` (stereo not drawn) [Compound 23, tert-butyl 4-(4-(2-(1,3-dimethyl-2,6-dioxo-2,3-dihydro-1H-purin-7(6H)-yl)propanamido)phenyl)piperazine-1-carboxylate], the IC50 was < 0.1 µM.
Under `Cn1c(=O)c2c(ncn2CC(=O)Nc2ccc(-c3ncco3)cc2)n(C)c1=O` [Compound 24, 2-(1,3-dimethyl-2,6-dioxo-2,3-dihydro-1H-purin-7(6H)-yl)-N-(4-(oxazol-2-yl)phenyl)acetamide] stands < 1 µM; under `Cn1c(=O)c2c(ncn2CC(=O)Nc2ccc(-c3ccccn3)cc2)n(C)c1=O` [Compound 25, 2-(1,3-dimethyl-2,6-dioxo-2,3-dihydro-1H-purin-7(6H)-yl)-N-(4-(pyridin-2-yl)phenyl)acetamide], < 0.1 µM; under `Cn1c(=O)c2c(ncn2CC(=O)Nc2ccc(-c3cccnc3)cc2)n(C)c1=O` [Compound 26, 2-(1,3-dimethyl-2,6-dioxo-2,3-dihydro-1H-purin-7(6H)-yl)-N-(4-(pyridin-3-yl)phenyl)acetamide], < 0.1 µM.
As to `COc1ccccc1-c1ccc(NC(=O)Cn2cnc3c2c(=O)n(C)c(=O)n3C)cc1` [Compound 27, 2-(1,3-dimethyl-2,6-dioxo-2,3-dihydro-1H-purin-7(6H)-yl)-N-(2′-methoxybiphenyl-4-yl)acetamide], the IC50 is > 10 µM.
With `Cc1ccccc1-c1ccc(NC(=O)Cn2cnc3c2c(=O)n(C)c(=O)n3C)cc1` [Compound 28, 2-(1,3-dimethyl-2,6-dioxo-2,3-dihydro-1H-purin-7(6H)-yl)-N-(2′-methylbiphenyl-4-yl)acetamide], the IC50 was > 10 µM.
Under `Cc1cccc(-c2ccc(NC(=O)Cn3cnc4c3c(=O)n(C)c(=O)n4C)cc2)c1` [Compound 29, 2-(1,3-dimethyl-2,6-dioxo-2,3-dihydro-1H-purin-7(6H)-yl)-N-(3′-methylbiphenyl-4-yl)acetamide] stands < 0.1 µM.
Regarding `Cc1ccc(-c2ccc(NC(=O)Cn3cnc4c3c(=O)n(C)c(=O)n4C)cc2)cc1` [Compound 30, 2-(1,3-dimethyl-2,6-dioxo-2,3-dihydro-1H-purin-7(6H)-yl)-N-(4′-methylbiphenyl-4-yl)acetamide], the IC50 is < 0.1 µM.
Consider `Cn1c(=O)c2c(ncn2CC(=O)Nc2ccc(-c3ccc(OC(F)(F)F)cc3)cc2)n(C)c1=O` [Compound 31, 2-(1,3-dimethyl-2,6-dioxo-2,3-dihydro-1H-purin-7(6H)-yl)-N-(4′-(trifluoromethoxy)biphenyl-4-yl)acetamide], for which the half-inhibitory concentration (IC50) was < 5 µM.
`COc1cccc(-c2ccc(NC(=O)Cn3cnc4c3c(=O)n(C)c(=O)n4C)cc2)c1` [Compound 32, 2-(1,3-dimethyl-2,6-dioxo-2,3-dihydro-1H-purin-7(6H)-yl)-N-(3′-methoxybiphenyl-4-yl)acetamide]: the IC50 is < 0.1 µM.
For `Cc1nc(-c2ccc(NC(=O)Cn3cnc4c3c(=O)n(C)c(=O)n4C)cc2)cs1` [Compound 33, 2-(1,3-dimethyl-2,6-dioxo-2,3-dihydro-1H-purin-7(6H)-yl)-N-(4-(2-methylthiazol-4-yl)phenyl)acetamide], the IC50 is < 0.1 µM.
The result for `Cn1c(=O)c2c(ncn2CC(=O)Nc2ccc(-c3nccs3)cc2)n(C)c1=O` [Compound 34, 2-(1,3-dimethyl-2,6-dioxo-2,3-dihydro-1H-purin-7(6H)-yl)-N-(4-(thiazol-2-yl)phenyl)acetamide] reads < 0.1 µM; that for `Cn1c(=O)c2c(ncn2CC(=O)Nc2ccc(-c3ccccc3)nc2)n(C)c1=O` [Compound 35, 2-(1,3-dimethyl-2,6-dioxo-2,3-dihydro-1H-purin-7(6H)-yl)-N-(6-phenylpyridin-3-yl)acetamide], < 0.1 µM.
